Test results as given in ChEMBL document CHEMBL1148944, “Iridoid glucosides and p-coumaroyl iridoids from Viburnum luzonicum and their cytotoxicity” (J Nat Prod, 2004).

Test: Cytotoxicity against human HeLaS3 cells by WST1 assay
Assay type: functional, cell-based
Details: HeLa S3

Structure (SMILES) | IC50 [µM]
CCC(C)CC(=O)O[C@@H]1OC=C(CO)[C@H]2C[C@H](OC(=O)/C=C/c3ccc(O)cc3)[C@](O)(CO)[C@@H]12 (stereo not given in full) [1-O-DEISOVAEROYL-1-O-3-METHYLVALEROYL-LUZONOID A] | 7.4
O=c1[nH]cc(F)c(=O)[nH]1 [FLUOROURACIL] | 5.4
CC(C)CC(=O)O[C@@H]1OC=C(CO)[C@H]2C[C@H](OC(=O)/C=C/c3ccc(O)cc3)[C@](O)(CO)[C@@H]12 [LUZONOID A] | 2.89
CC(C)CC(=O)O[C@@H]1OC=C(CO)[C@H]2C[C@H](OC(=O)/C=C\c3ccc(O)cc3)[C@](O)(CO)[C@@H]12 [LUZONOID B] | 3.11
CC(C)CC(=O)O[C@@H]1OC=C(CO)[C@H]2C[C@H](O)[C@](O)(COC(=O)/C=C/c3ccc(O)cc3)[C@@H]12 [LUZONOID C] | 3.57
CC(C)CC(=O)O[C@@H]1OC=C(CO)[C@H]2C[C@H](O)[C@](O)(COC(=O)/C=C\c3ccc(O)cc3)[C@@H]12 [LUZONOID D] | 4.56
CC(C)CC(=O)O[C@@H]1OC=C(CO[C@@H]2O[C@H](CO)[C@@H](O)[C@H](O)[C@H]2O)[C@H]2C[C@H](OC(=O)/C=C/c3ccc(O)cc3)[C@](O)(CO)[C@@H]12 [LUZONOSIDE A] | 3.39
CC(C)CC(=O)O[C@@H]1OC=C(CO[C@@H]2O[C@H](CO)[C@@H](O)[C@H](O)[C@H]2O)[C@H]2C[C@H](OC(=O)/C=C\c3ccc(O)cc3)[C@](O)(CO)[C@@H]12 [LUZONOSIDE B] | 4.67
COC(=O)C1=CO[C@@H](O[C@@H]2O[C@H](CO)[C@@H](O)[C@H](O)[C@H]2O)[C@@H]2[C@@H](COC(=O)/C=C/c3ccc(O)cc3)CC[C@H]12 [LUZONOSIDE C] | 100
COC(=O)C1=CO[C@@H](O[C@@H]2O[C@H](CO)[C@@H](O)[C@H](O)[C@H]2O)[C@@H]2[C@@H](COC(=O)/C=C\c3ccc(O)cc3)CC[C@H]12 [LUZONOSIDE D] | 100
